Key:
Assay type in all cases: organism-based
Vigna angularis [1] = experiment: Phytotoxicity in Vigna angularis (adzuki bean) assessed as crop yield at 144 g ai/ha measured during post emergence applied as spray (reference value: 2.05 t/ha); conditions: in vivo, other
Vigna angularis [2] = experiment: Phytotoxicity in Vigna angularis (adzuki bean) assessed as crop yield at 72 g ai/ha measured during post emergence applied as spray (reference value: 2.05 t/ha); conditions: in vivo, other
Vigna angularis [3] = experiment: Phytotoxicity in Vigna angularis (adzuki bean) assessed as shoot dry weight at 144 g ai/ha measured per 1 m row after 42 days applied as spray (reference value: 153 g); conditions: in vivo, other, 1008 h
Vigna angularis [4] = experiment: Phytotoxicity in Vigna angularis (adzuki bean) assessed as shoot dry weight at 72 g ai/ha measured per 1 m row after 42 days applied as spray (reference value: 153 g); conditions: in vivo, other, 1008 h
Vigna angularis [5] = experiment: Phytotoxicity in Vigna angularis (adzuki bean) assessed as seed moisture content at 144 g ai/ha after 42 days applied as spray (reference value: 13.9%); conditions: in vivo, other, 1008 h, at 144 g/ha
Vigna angularis [6] = experiment: Phytotoxicity in Vigna angularis (adzuki bean) assessed as seed moisture content at 72 g ai/ha after 42 days applied as spray (reference value: 13.9%); conditions: in vivo, other, 1008 h, at 72 g/ha
Vigna angularis [7] = experiment: Phytotoxicity in Vigna angularis (adzuki bean) assessed as visual injury at 144 g ai/ha after 28 days applied as spray relative to untreated control; conditions: in vivo, other, 672 h
Vigna angularis [8] = experiment: Phytotoxicity in Vigna angularis (adzuki bean) assessed as visual injury at 144 g ai/ha after 14 days applied as spray relative to untreated control; conditions: in vivo, other, 336 h
Vigna angularis [9] = experiment: Phytotoxicity in Vigna angularis (adzuki bean) assessed as visual injury at 144 g ai/ha after 7 days applied as spray relative to untreated control; conditions: in vivo, other, 168 h
Vigna angularis [10] = experiment: Phytotoxicity in Vigna angularis (adzuki bean) assessed as visual injury at 72 g ai/ha after 28 days applied as spray relative to untreated control; conditions: in vivo, other, 672 h
Vigna angularis [11] = experiment: Phytotoxicity in Vigna angularis (adzuki bean) assessed as visual injury at 72 g ai/ha after 14 days applied as spray relative to untreated control; conditions: in vivo, other, 336 h
Vigna angularis [12] = experiment: Phytotoxicity in Vigna angularis (adzuki bean) assessed as visual injury at 72 g ai/ha after 7 days applied as spray relative to untreated control; conditions: in vivo, other, 168 h
Vigna angularis [13] = experiment: Phytotoxicity in Vigna angularis (adzuki bean) assessed as plant height at 144 g ai/ha after 28 days applied as spray (RVB = 34 cm); conditions: in vivo, other, 672 h
Vigna angularis [14] = experiment: Phytotoxicity in Vigna angularis (adzuki bean) assessed as plant height at 72 g ai/ha after 28 days applied as spray (RVB = 34 cm); conditions: in vivo, other, 672 h
Vigna angularis [15] = experiment: Phytotoxicity in Vigna angularis (adzuki bean) assessed as crop yield at 1000 g ai/ha measured during post emergence applied as spray (reference value: 2.05 t/ha); conditions: in vivo, other
Vigna angularis [16] = experiment: Phytotoxicity in Vigna angularis (adzuki bean) assessed as crop yield at 500 g ai/ha measured during post emergence applied as spray (reference value: 2.05 t/ha); conditions: in vivo, other
Vigna angularis [17] = experiment: Phytotoxicity in Vigna angularis (adzuki bean) assessed as seed moisture content at 1000 g ai/ha after 42 days applied as spray (reference value: 13.9%); conditions: in vivo, other, 1008 h, at 1000 g/ha
Vigna angularis [18] = experiment: Phytotoxicity in Vigna angularis (adzuki bean) assessed as seed moisture content at 500 g ai/ha after 42 days applied as spray (reference value: 13.9%); conditions: in vivo, other, 1008 h, at 500 g/ha
Vigna angularis [19] = experiment: Phytotoxicity in Vigna angularis (adzuki bean) assessed as plant height at 500 g ai/ha after 28 days applied as spray (RVB = 34 cm); conditions: in vivo, other, 672 h
Vigna angularis [20] = experiment: Phytotoxicity in Vigna angularis (adzuki bean) assessed as visual injury at 1000 g ai/ha after 28 days applied as spray relative to untreated control; conditions: in vivo, other, 672 h
Vigna angularis [21] = experiment: Phytotoxicity in Vigna angularis (adzuki bean) assessed as visual injury at 1000 g ai/ha after 14 days applied as spray relative to untreated control; conditions: in vivo, other, 336 h
Vigna angularis [22] = experiment: Phytotoxicity in Vigna angularis (adzuki bean) assessed as visual injury at 1000 g ai/ha after 7 days applied as spray relative to untreated control; conditions: in vivo, other, 168 h
Vigna angularis [23] = experiment: Phytotoxicity in Vigna angularis (adzuki bean) assessed as visual injury at 500 g ai/ha after 28 days applied as spray relative to untreated control; conditions: in vivo, other, 672 h
Vigna angularis [24] = experiment: Phytotoxicity in Vigna angularis (adzuki bean) assessed as visual injury at 500 g ai/ha after 14 days applied as spray relative to untreated control; conditions: in vivo, other, 336 h
Vigna angularis [25] = experiment: Phytotoxicity in Vigna angularis (adzuki bean) assessed as visual injury at 500 g ai/ha after 7 days applied as spray relative to untreated control; conditions: in vivo, other, 168 h
Vigna angularis [26] = experiment: Phytotoxicity in Vigna angularis (adzuki bean) assessed as shoot dry weight at 1000 g ai/ha measured per 1 m row after 42 days applied as spray (reference value: 153 g); conditions: in vivo, other, 1008 h
Vigna angularis [27] = experiment: Phytotoxicity in Vigna angularis (adzuki bean) assessed as shoot dry weight at 500 g ai/ha measured per 1 m row after 42 days applied as spray (reference value: 153 g); conditions: in vivo, other, 1008 h
Vigna angularis [28] = experiment: Phytotoxicity in Vigna angularis (adzuki bean) assessed as plant height at 1000 g ai/ha after 28 days applied as spray (RVB = 34 cm); conditions: in vivo, other, 672 h

CCOC(=O)[C@@H](C)Oc1ccc(Oc2cnc3cc(Cl)ccc3n2)cc1 [QUIZALOFOP-P-ETHYL] showed a Crop_yield (Vigna angularis [1]) of 2.08 tons/ha, a Crop_yield (Vigna angularis [2]) of 2.22 tons/ha and an Activity (Vigna angularis [3]) of 135 g. For the same molecule, the Activity (Vigna angularis [4]) was 140 g, the Activity (Vigna angularis [5]) was 14.1% and the Activity (Vigna angularis [6]) was 13.9%. For the same molecule, the Activity (Vigna angularis [7]) was 0.8%, the Activity (Vigna angularis [8]) was 1.8% and the Activity (Vigna angularis [9]) was 2.4%. The Activity (Vigna angularis [10]) was 0.3%, the Activity (Vigna angularis [11]) was 1.2% and the Activity (Vigna angularis [12]) was 1.4%. It also gave an Activity (Vigna angularis [13]) of 33.2 cm and an Activity (Vigna angularis [14]) of 35.2 cm.

Work on CCC/C(=N\OCC)C1=C(O)CC(CC(C)SCC)CC1=O (stereo not drawn) [SETHOXYDIM] yielded a Crop_yield (Vigna angularis [15]) of 1.95 tons/ha, a Crop_yield (Vigna angularis [16]) of 2.04 tons/ha and an Activity (Vigna angularis [17]) of 14.3%. It also gave an Activity (Vigna angularis [18]) of 14.1%, an Activity (Vigna angularis [19]) of 33.1 cm and an Activity (Vigna angularis [20]) of 1.1%. For the same molecule, the Activity (Vigna angularis [21]) was 3.6%, the Activity (Vigna angularis [22]) was 4.9% and the Activity (Vigna angularis [23]) was 0.4%. For the same molecule, the Activity (Vigna angularis [24]) was 1.6%, the Activity (Vigna angularis [25]) was 3.7% and the Activity (Vigna angularis [26]) was 142 g. For the same molecule, the Activity (Vigna angularis [27]) was 134 g and the Activity (Vigna angularis [28]) was 32.8 cm.

— ChEMBL document CHEMBL3044665, “Adzuki bean (Vigna angularis) responses to post-emergence herbicides” (Crop Prot, 2006)
